Source: patent US20230303486A1, “CYCLOBUTYL-UREA DERIVATIVES” (Idorsia Pharmaceuticals Ltd, priority 2020, published 2023)
Like-named read-outs stand apart in the source and are kept apart here.

Test system: primary neuronal cultures from embryonic rat brains
Assay: Rat oscillation assay (FLIPR, neuronal calcium oscillations)
Type: cell-based
Method in brief: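 E18 Wistar rat cortical neurons cultured 8–10 days, loaded with 1 µM Fluo-8 AM, then kept in Mg2+-free HEPES-buffered HBSS (2 mM CaCl2, pH 7.4) to drive synchronized calcium oscillations. Fluorescence read at 1 Hz over 500 sec with or without XE-991, compound added at 250 sec; second acquisition 20 min after addition.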

Compound `O=C(NCc1cccc(C(F)(F)F)c1)NC1CC(C(F)F)C1` (single isomer, unassigned) [Example 53, 1-(3-(Difluoromethyl)Cyclobutyl)-3-(3-(Trifluoromethyl)Benzyl)Urea] has an IC50 (20 min after compound addition, AUC of fluorescence, read-out: FLIPR: IC50 [nM] 20 min) of 295 nM and an IC50 (acute phase, ratio of AUC fluorescence before and after compound addition, rat cortical neurons, Mg-free buffer, read-out: FLIPR: IC50 [nM] acute) of 168 nM.

Compound `O=C(NCc1cccc(C(F)(F)F)c1)NC12CC(C(F)F)(C1)C2` [Example 47, 1-(3-Difluoromethyl-Bicyclo[1.1.1]Pent-1-yl)-3-(3-Trifluoromethyl-Benzyl)-Urea] has an IC50 (Rattus norvegicus, 20 min, 20 min after compound addition, AUC of fluorescence, read-out: FLIPR: IC50 [nM] 20 min) of 160 nM and an IC50 (Rattus norvegicus, Cortical neurone, acute phase, ratio of AUC fluorescence before and after compound addition, rat cortical neurons, Mg-free buffer, read-out: FLIPR: IC50 [nM] acute) of 118 nM.
